Publication PMC11259170, “Small-molecule probe for IBD risk variant GPR65 I231L alters cytokine signaling networks through positive allosteric modulation” (Science Advances, 2024)

Test system: GPR65 WT BMDCs
Test: RNA sequencing of BMDCs, GPR65 WT
Format: cell-based, mouse
Experimental: BMDCs were differentiated from bone marrow from in Dulbecco’s modified Eagle’s medium (DMEM) [10% heat-inactivated fetal bovine serum (FBS), 1X GlutaMAX, 1% penicillin-streptomycin] containing recombinant murine granulocyte-macrophage colony-stimulating factor (rmGM-CSF) (20 ng/ml; Peprotech, 315-03) for 7 days, supplemented with additional DMEM + rmGM-CSF on day 3. Cells were then scraped and seeded at 1 × 10^5 cells per well in a 96-well microplate and allowed to adhere overnight.
Different media were prepared on the basis of target pH. pH 6.6: DMEM [10% FBS, 1% penicillin/streptomycin (p/s), 20 mM BES (MilliporeSigma, B4554), 1X Glutamax (Gibco, 35050061), 3.75 mM sodium bicarbonate, and 41.25 mM NaCl]. pH 7.2: DMEM (10% FBS, 1% p/s, 20 mM BES, 1X Glutamax, 7.5 mM sodium bicarbonate, and 36.5 mM NaCl). pH 7.6: DMEM 10% FBS, 1% p/s, 20 mM BES, 1X Glutamax, and 44 mM sodium bicarbonate. Media was allowed to equilibrate overnight at 37°C, 5% CO2 in a vented conical tube, and then adjusted to desired pH immediately before the stimulation using 1 M NaOH.
BMDCs were stimulated with different compounds and pH conditions while simultaneously challenged with zymosan (5 μg/ml; Invivogen, tlrl-zyn) for 2 hours. The treatment conditions were as follows: (i) pH 7.2 + DMSO, (ii) pH 7.2 + 20 μM BRD5075, (iii) pH 7.6 + DMSO, and (iv) pH 7.6 + 5 μM PGE2 (Tocris, 2296). Cells were lysed with a lysis/binding buffer (Invitrogen, A33562).
Libraries were prepared using a modified SmartSeq2 protocol. RNA lysates were purified with Dynabeads mRNA Direct Purification kit (Life Technologies, 61011), followed by reverse transcription with Maxima Reverse Transcriptase (Thermo Fisher Scientific, EP0742) and whole transcription amplification (WTA) with KAPA HotStart HiFi 2x ReadyMix (Kapa Biosystems, KK2601). WTA products were purified with Ampure XP beads (Beckman Coulter, A63880). RNA sequencing libraries were constructed using Nextera XT DNA Library Preparation kit (Illumina, FC-131-1096). Samples were purified with Ampure XP, pooled in equal quantities, then run on 2% E-gel EX (Invitrogen, G402022). Extracted library from ~250 to 800 bps with gel extraction kit (Zymo Research, D4008). The libraries were sequenced on an Illumina NextSeq 500 instrument with NextSeq 500/550 High Output v2 kit (Illumina, 20024906) and the following parameters: paired End: Index1 8, Index2 8, Read1 38, Read 2 38.
BCL files were converted to fastq using Bcl2Fastq. Fastq reads were aligned to the mouse reference genome mm10 using the STAR aligner ([55]), and counts assigned to genes using the RSEM package ([56]). The R/Bioconductor package DESeq2 ([57]) was used to identify differentially expressed (DE) genes. The data were not normalized or pre-processed in any way, as DESeq2 expects raw un-normalized counts as input. Genes with a Benjamini and Hochberg–corrected P value < 0.1 were considered statistically significant.

[1] = WT BMDCs, BRD5075 vs DMSO, pH 7.2

Cc1ccc(NC(=O)c2cnn3c(O)cc(-c4ccc(COC(C)C)cc4)nc23)nc1 [BRD5075, O=C(NC1=NC=C(C)C=C1)C2=C3N(N=C2)C(O)=CC(C4=CC=C(COC(C)C)C=C4)=N3]
Fos expression (20 μM vs DMSO, pH 7.2): up-regulated
Socs3 and Cish expression (20 μM vs DMSO, pH 7.2): down-regulated
Tnfrsf9, Tnfrsf26 and Tnfaip8 expression (20 μM vs DMSO, pH 7.2): down-regulated
expression of inflammatory cytokine (Il12b, Il1b, Tnf) and chemokine (Ccl7, Ccl2, Ccl22, Cxcl1, Cxcl2, Cxcl3) genes (20 μM vs DMSO, pH 7.2): down-regulated
Mt1 and Mt2 expression (20 μM vs DMSO, pH 7.2, zymosan, 2 hours): up-regulated
log2FoldChange Acod1 [1]: -0.8043
log2FoldChange Ahnak [1]: -0.3498
log2FoldChange Bcl2a1a [1]: -0.4699
log2FoldChange Bcl2a1b [1]: -0.2827
log2FoldChange Bcl2a1d [1]: -0.38
log2FoldChange Btg1 [1]: -0.3947
log2FoldChange Cacnb3 [1]: -0.5998
log2FoldChange Cap1 [1]: -0.3862
log2FoldChange Car2 [1]: -0.6566
log2FoldChange Ccl2 [1]: -0.6388
log2FoldChange Ccl5 [1]: -0.8152
log2FoldChange Ccl7 [1]: -1.049
log2FoldChange Ccl22 [1]: -0.5298
log2FoldChange Ccr7 [1]: -0.5607
log2FoldChange Ccrl2 [1]: -0.6903
log2FoldChange Cd14 [1]: -0.4004
log2FoldChange Cd86 [1]: -0.6053
log2FoldChange Cdc37 [1]: -0.5925
log2FoldChange Cdc42ep2 [1]: -0.4809
log2FoldChange Cebpb [1]: -0.9437
log2FoldChange Cflar [1]: -0.6547
log2FoldChange Cish [1]: -0.8764
log2FoldChange Clec4e [1]: -0.6037
log2FoldChange Coro1a [1]: -0.3668
log2FoldChange Cxcl1 [1]: -0.8744
log2FoldChange Cxcl2 [1]: -0.4995
log2FoldChange Cxcl3 [1]: -0.5082
log2FoldChange Cytip [1]: -0.4125
log2FoldChange Ddx5 [1]: -0.3311
log2FoldChange Ehd1 [1]: -0.3665
log2FoldChange Eif1a [1]: -0.4662
log2FoldChange Fam177a [1]: -0.5633
log2FoldChange Flrt3 [1]: -0.6822
log2FoldChange Fos [1]: 0.7626
log2FoldChange Fscn1 [1]: -1.127
log2FoldChange Gem [1]: -0.7493
log2FoldChange Ghitm [1]: -0.3657
log2FoldChange Gpr84 [1]: -0.6049
log2FoldChange H2-Ab1 [1]: -0.3044
log2FoldChange H2-D1 [1]: -0.3663
log2FoldChange H2-K1 [1]: -0.4443
log2FoldChange H2-Q4 [1]: -0.9033
log2FoldChange H2-Q6 [1]: -0.6888
log2FoldChange H2-Q7 [1]: -0.7384
log2FoldChange Hivep3 [1]: -0.8888
log2FoldChange Hnrnpab [1]: -0.4744
log2FoldChange Ier3 [1]: -0.643
log2FoldChange Ifitm1 [1]: -0.5428
log2FoldChange Ifitm3 [1]: -0.5054
log2FoldChange Il1b [1]: -1.038
log2FoldChange Il1rn [1]: -0.3871
log2FoldChange Il12b [1]: -0.7451
log2FoldChange Inhba [1]: -0.8833
log2FoldChange Irf8 [1]: -0.5092
log2FoldChange Lrrc58 [1]: -0.5089
log2FoldChange Malt1 [1]: -0.6085
log2FoldChange Marcksl1 [1]: -0.8077
log2FoldChange Myo9b [1]: -0.609
log2FoldChange Nfe2l2 [1]: -0.3368
log2FoldChange Nfkb2 [1]: -0.6827
log2FoldChange Nfkbia [1]: -0.3317
log2FoldChange Nfkbid [1]: -0.8151
log2FoldChange Nfkbie [1]: -0.5542
log2FoldChange Pde4b [1]: -0.698
log2FoldChange Plau [1]: -0.5236
log2FoldChange Plek [1]: -0.4983
log2FoldChange Ptafr [1]: -0.4512
log2FoldChange Ptgs2 [1]: -0.6129
log2FoldChange Ptpn6 [1]: -0.3496
log2FoldChange Rasgef1b [1]: -0.4887
log2FoldChange Rgs1 [1]: -0.3869
log2FoldChange Rps28 [1]: 0.3044
log2FoldChange Rsad2 [1]: -0.6161
log2FoldChange S100a8 [1]: -0.9378
log2FoldChange S100a9 [1]: -1.055
log2FoldChange Samsn1 [1]: -0.5214
log2FoldChange Sat1 [1]: -0.2878
log2FoldChange Sel1l [1]: -0.4914
log2FoldChange Sh3bgrl [1]: -0.3277
log2FoldChange Slc3a2 [1]: -0.6173
log2FoldChange Slc7a11 [1]: -0.4778
log2FoldChange Slfn2 [1]: -0.3087
log2FoldChange Socs3 [1]: -0.448
log2FoldChange Sqstm1 [1]: -0.4417
log2FoldChange Srgn [1]: -0.3315
log2FoldChange Stub1 [1]: -0.4634
log2FoldChange Syngr2 [1]: -0.3646
log2FoldChange Tfec [1]: -0.8287
log2FoldChange Tlr2 [1]: -0.455
log2FoldChange Tmem123 [1]: -0.5279
log2FoldChange Tmsb10 [1]: 0.5333
log2FoldChange Tnf [1]: -0.4212
log2FoldChange Tnfaip8 [1]: -0.4539
log2FoldChange Tnfrsf9 [1]: -0.6055
log2FoldChange Tnfrsf26 [1]: -0.4775
log2FoldChange Tnip3 [1]: -0.5262
log2FoldChange Ybx1 [1]: -0.4889
log2FoldChange mt-Atp8 [1]: 0.4788
